Active and inactive are the calls of the source. No cut-off for these calls is given here.
Key:
Histone deacetylase 11 = molecular target: T1, Histone deacetylase 11 (Homo sapiens, UniProt Q96DB2); test: Inhibition of HDAC11 (unknown origin) using FAM-labeled peptide substrate by […] mobility shift assay
T1 sequence (Q96DB2 whole entry): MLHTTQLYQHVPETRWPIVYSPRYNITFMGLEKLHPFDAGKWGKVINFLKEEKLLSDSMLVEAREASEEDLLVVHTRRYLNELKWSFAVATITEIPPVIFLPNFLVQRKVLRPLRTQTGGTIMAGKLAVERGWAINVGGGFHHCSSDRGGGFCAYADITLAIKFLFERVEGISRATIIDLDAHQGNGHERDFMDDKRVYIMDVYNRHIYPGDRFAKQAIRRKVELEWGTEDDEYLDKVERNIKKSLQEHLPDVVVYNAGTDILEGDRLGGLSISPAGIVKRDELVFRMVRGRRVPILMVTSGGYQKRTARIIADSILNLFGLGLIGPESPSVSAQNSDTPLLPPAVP

[1] = Selectivity index, ratio of IC50 for inhibition of HDAC8 (unknown origin) to IC50 for inhibition of HDAC6 (unknown origin)
Histone deacetylase 8 = molecular target: T2, Histone deacetylase 8 (Homo sapiens, UniProt Q9BY41); test: Inhibition of HDAC8 (unknown origin) using FAM-labeled peptide substrate by […] mobility shift assay
T2 sequence (Q9BY41 whole entry): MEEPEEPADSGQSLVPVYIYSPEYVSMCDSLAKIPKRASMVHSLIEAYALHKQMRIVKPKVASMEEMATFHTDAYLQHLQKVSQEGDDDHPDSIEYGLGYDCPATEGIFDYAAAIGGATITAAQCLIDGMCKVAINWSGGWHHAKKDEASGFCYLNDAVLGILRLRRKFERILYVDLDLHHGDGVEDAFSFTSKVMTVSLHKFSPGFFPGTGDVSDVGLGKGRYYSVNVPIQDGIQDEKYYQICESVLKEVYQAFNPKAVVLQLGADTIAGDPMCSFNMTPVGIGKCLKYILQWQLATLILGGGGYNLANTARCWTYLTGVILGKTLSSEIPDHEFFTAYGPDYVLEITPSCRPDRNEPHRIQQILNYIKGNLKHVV

[2] = Stability of compound in human whole blood assessed as half-life at 1 uM measured upto 40 mins by LC-MS/MS analysis; format: ADME, tissue-based
[3] = molecular target: Histone deacetylase 1 (Homo sapiens) (UniProt Q13547); test: Inhibition of HDAC1 in human MM1.S cells assessed as increase in acetylated histone H3 level at 1 uM incubated for 6 hrs by Western blot analysis; format: cell-based
[4] = molecular target: Histone deacetylase 2 (Homo sapiens) (UniProt Q92769); test: Inhibition of HDAC2 in human MM1.S cells assessed as increase in acetylated histone H3 level at 1 uM incubated for 6 hrs by Western blot analysis; format: cell-based
MM1.S = test: Antiproliferative activity against human MM1.S cells assessed as reduction in cell viability measured after 72 hrs by CellTiter-Glo assay; format: functional, cell-based
N2a = test: Antiproliferative activity against mouse Neuro2a cells assessed as effect on cell viability by CellTiter-Glo assay; format: functional, cell-based
[5] = molecular target: Protein cereblon/Protein deacetylase HDAC6 (Mus musculus) (UniProt Q9Z2V5+Q8C7D2); test: In vivo PROTAC activity at CRBN/HDAC6 in female C57BL/6J mouse assessed as reduction in HDAC6 protein level in liver at 5 mg/kg, iv measured after 6 hrs by Western blot analysis relative to control; format: functional, organism-based; design: scale not given: the % may be the effect or the level left
[6] = molecular target: Protein cereblon/Protein deacetylase HDAC6 (Homo sapiens) (UniProt Q9UBN7+Q96SW2); test: PROTAC activity at CRBN/HDAC6 in human MM1.S cells assessed as induction of HDAC6 degradation at 0.1 to 1 uM by Western blot analysis; format: cell-based; conditions: dose 0.1-1 µM
Protein cereblon/Protein deacetylase HDAC6 (Homo sapiens), sequence (Q96SW2 whole entry, looked up): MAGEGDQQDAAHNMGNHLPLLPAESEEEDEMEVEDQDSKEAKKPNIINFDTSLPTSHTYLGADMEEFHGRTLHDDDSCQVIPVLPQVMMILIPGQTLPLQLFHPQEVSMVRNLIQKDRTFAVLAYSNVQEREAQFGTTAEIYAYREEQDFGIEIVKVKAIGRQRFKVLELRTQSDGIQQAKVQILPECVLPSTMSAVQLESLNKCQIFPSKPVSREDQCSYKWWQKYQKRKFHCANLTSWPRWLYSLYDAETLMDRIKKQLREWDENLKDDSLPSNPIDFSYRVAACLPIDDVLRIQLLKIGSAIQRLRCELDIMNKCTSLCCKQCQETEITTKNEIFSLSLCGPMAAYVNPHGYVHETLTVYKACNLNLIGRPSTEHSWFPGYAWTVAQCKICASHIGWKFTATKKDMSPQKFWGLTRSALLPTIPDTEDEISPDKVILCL
Protein cereblon/Protein deacetylase HDAC6 (Homo sapiens), sequence (Q9UBN7 whole entry, looked up): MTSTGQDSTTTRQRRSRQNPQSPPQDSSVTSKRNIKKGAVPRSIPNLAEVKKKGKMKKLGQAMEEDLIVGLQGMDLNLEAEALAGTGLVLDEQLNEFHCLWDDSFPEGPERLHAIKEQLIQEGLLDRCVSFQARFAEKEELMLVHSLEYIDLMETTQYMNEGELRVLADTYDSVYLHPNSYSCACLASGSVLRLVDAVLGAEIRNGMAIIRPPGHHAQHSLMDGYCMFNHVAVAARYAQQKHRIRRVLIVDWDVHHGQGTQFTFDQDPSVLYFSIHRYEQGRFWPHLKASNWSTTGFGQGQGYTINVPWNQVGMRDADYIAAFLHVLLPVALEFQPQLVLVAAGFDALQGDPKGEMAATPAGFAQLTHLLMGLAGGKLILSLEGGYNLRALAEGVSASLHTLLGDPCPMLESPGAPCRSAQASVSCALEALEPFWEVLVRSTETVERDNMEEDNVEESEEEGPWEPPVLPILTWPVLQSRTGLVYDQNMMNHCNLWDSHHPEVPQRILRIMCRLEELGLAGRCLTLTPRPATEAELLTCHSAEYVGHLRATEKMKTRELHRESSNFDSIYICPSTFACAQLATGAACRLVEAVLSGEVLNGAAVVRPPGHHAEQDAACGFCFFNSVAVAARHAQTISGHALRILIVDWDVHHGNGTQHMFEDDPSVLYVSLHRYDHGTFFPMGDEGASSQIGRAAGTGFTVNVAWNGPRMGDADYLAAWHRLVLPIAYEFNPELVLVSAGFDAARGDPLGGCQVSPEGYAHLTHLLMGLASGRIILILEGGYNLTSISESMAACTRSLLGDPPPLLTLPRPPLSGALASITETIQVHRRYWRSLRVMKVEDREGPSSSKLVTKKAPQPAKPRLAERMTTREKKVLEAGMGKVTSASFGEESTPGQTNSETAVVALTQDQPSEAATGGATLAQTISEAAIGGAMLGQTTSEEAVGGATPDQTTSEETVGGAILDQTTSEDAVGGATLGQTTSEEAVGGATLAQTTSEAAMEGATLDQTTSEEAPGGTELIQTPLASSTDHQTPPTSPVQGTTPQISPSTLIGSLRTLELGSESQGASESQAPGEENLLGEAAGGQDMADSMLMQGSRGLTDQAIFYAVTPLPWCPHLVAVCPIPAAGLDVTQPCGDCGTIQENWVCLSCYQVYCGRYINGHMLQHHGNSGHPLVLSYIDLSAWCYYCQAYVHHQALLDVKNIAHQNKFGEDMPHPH

Histone deacetylase 1 (Homo sapiens), sequence (Q13547 whole entry): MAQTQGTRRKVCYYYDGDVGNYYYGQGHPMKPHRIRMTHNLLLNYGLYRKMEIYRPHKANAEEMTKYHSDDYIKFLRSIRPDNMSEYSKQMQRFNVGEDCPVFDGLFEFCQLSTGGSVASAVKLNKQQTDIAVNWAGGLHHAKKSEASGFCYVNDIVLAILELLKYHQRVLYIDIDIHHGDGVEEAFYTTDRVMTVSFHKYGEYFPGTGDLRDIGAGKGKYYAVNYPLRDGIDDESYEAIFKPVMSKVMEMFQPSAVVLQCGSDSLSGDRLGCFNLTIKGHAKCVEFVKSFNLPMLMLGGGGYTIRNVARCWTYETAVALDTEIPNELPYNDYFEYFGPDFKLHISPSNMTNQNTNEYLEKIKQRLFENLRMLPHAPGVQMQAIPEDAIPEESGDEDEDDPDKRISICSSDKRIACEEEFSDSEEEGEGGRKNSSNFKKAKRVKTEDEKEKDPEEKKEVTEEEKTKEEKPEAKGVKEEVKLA
Histone deacetylase 2 (Homo sapiens), sequence (Q92769 whole entry): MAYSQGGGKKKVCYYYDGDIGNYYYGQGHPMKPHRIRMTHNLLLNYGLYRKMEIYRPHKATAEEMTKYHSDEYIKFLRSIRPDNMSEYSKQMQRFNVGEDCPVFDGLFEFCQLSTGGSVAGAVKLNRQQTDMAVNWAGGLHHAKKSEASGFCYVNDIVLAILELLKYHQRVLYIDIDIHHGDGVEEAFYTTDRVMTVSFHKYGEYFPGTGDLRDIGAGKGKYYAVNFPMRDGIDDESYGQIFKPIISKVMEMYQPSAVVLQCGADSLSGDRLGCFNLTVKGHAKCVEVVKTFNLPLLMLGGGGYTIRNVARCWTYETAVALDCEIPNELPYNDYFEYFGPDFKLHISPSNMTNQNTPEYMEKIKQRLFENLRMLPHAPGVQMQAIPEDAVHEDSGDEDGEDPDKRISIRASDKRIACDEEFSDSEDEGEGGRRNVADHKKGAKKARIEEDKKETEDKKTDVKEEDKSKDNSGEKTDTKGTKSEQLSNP
Protein cereblon/Protein deacetylase HDAC6 (Mus musculus), sequence (Q8C7D2 whole entry, looked up): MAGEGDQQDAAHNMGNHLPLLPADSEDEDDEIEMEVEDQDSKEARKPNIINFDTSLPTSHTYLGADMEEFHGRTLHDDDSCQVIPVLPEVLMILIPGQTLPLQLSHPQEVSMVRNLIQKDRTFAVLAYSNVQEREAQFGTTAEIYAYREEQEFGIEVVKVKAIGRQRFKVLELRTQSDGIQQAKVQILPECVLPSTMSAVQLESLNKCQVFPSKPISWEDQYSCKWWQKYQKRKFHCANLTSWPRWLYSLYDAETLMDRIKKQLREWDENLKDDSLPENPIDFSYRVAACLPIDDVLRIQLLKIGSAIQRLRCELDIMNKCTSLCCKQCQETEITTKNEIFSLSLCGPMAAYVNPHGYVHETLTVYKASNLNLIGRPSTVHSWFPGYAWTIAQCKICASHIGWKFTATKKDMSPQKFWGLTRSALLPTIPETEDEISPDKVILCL
Protein cereblon/Protein deacetylase HDAC6 (Mus musculus), sequence (Q9Z2V5 whole entry, looked up): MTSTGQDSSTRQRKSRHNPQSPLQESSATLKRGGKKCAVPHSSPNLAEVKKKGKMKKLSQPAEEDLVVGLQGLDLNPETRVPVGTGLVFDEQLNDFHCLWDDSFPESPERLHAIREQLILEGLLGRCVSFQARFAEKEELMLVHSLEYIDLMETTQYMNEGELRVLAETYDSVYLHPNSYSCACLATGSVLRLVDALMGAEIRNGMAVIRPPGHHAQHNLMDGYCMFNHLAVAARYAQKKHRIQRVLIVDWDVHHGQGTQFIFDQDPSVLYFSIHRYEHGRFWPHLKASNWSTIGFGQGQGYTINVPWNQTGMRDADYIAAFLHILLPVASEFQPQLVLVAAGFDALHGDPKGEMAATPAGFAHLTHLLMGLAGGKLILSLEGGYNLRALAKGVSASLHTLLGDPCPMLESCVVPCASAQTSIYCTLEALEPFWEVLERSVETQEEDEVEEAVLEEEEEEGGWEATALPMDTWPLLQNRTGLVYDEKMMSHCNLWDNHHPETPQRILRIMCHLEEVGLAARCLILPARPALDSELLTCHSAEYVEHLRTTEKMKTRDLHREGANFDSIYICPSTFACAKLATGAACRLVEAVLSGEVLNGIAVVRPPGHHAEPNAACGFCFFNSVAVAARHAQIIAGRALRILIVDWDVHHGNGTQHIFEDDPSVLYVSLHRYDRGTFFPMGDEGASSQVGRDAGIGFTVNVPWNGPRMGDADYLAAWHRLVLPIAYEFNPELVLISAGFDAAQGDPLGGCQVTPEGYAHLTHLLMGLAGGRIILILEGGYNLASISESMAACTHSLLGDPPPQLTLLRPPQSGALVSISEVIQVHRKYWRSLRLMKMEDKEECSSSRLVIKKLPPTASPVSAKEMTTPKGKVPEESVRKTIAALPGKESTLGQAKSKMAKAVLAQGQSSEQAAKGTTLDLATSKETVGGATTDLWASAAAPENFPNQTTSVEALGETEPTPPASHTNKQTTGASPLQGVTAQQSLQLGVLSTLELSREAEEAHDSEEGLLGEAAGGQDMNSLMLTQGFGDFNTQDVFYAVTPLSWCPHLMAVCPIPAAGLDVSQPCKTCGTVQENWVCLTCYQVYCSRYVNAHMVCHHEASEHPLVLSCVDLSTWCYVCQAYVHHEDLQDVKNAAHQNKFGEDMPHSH

Row | Compound | half-life at 1 µM [2] | inhibition [3] | inhibition [4] | also measured
1 | O=C(NO)c1ccc(CN(Cc2cccnc2)S(=O)(=O)c2cc(F)c(F)c(F)c2F)cc1 | – | – | – | IC50 (Histone deacetylase 11): > 1 µM; Ratio IC50 [1]: 158; IC50 (Histone deacetylase 8): 0.0316 µM
2 | O=C1CCC(N2C(=O)c3cccc(NCCOCCn4cc(CCCCN(Cc5ccc(C(=O)NO)cc5)Cc5cccnc5)nn4)c3C2=O)C(=O)N1 (stereo unspecified) | 1.01 h | inactive | inactive | –
3 | O=C1CCC(N2C(=O)c3cccc(NCCOCCOCCN(Cc4ccc(C(=O)NO)cc4)Cc4cccnc4)c3C2=O)C(=O)N1 (stereo unspecified) | 1.06 h | inactive | inactive | –
4 | O=C1CCC(N2C(=O)c3cccc(NCCN(Cc4ccc(C(=O)NO)cc4)Cc4cccnc4)c3C2=O)C(=O)N1 (stereo unspecified) | 1.29 h | inactive | inactive | –
5 | O=C1CCC(N2C(=O)c3cccc(NCCOCCOCCn4cc(CN(Cc5ccc(C(=O)NO)cc5)Cc5cccnc5)nn4)c3C2=O)C(=O)N1 (stereo unspecified) | 0.62 h | inactive | inactive | IC50 (Histone deacetylase 11): > 10 µM
6 | O=C1CCC(N2C(=O)c3cccc(NCCCn4cc(CCCCN(Cc5ccc(C(=O)NO)cc5)Cc5cccnc5)nn4)c3C2=O)C(=O)N1 (stereo unspecified) | 1.05 h | inactive | inactive | Activity (MM1.S): inactive; Activity (N2a): inactive
7 | CN1C(=O)CCC(N2C(=O)c3cccc(NCCOCCOCCn4cc(CN(Cc5ccc(C(=O)NO)cc5)Cc5cccnc5)nn4)c3C2=O)C1=O (stereo unspecified) | – | – | – | Activity [6]: inactive
8 | O=C1CCC(N2C(=O)c3cccc(NCCOCCN(Cc4ccc(C(=O)NO)cc4)Cc4cccnc4)c3C2=O)C(=O)N1 (stereo unspecified) | 1.36 h | inactive | inactive | –
9 | O=C1CCC(N2C(=O)c3cccc(NCCCCN(Cc4ccc(C(=O)NO)cc4)Cc4cccnc4)c3C2=O)C(=O)N1 (stereo unspecified) | 1.45 h | inactive | inactive | –

Further lines, with some results ahead:

Row | half-life at 1 µM [2] | inhibition [3] | inhibition [4] | Compound | also measured
10 | 0.864 h | inactive | inactive | O=C1CCC(N2C(=O)c3cccc(NCCOCCOCCn4cc(CCCCN(Cc5ccc(C(=O)NO)cc5)Cc5cccnc5)nn4)c3C2=O)C(=O)N1 (stereo unspecified) | –
11 | 0.762 h | inactive | inactive | O=C1CCC(N2C(=O)c3cccc(NCCCCCCn4cc(CCCCN(Cc5ccc(C(=O)NO)cc5)Cc5cccnc5)nn4)c3C2=O)C(=O)N1 (stereo unspecified) | –
12 | 1.33 h | inactive | inactive | O=C1CCC(N2C(=O)c3cccc(NCCOCCn4cc(CN(Cc5ccc(C(=O)NO)cc5)Cc5cccnc5)nn4)c3C2=O)C(=O)N1 (stereo unspecified) | Activity (MM1.S): Active; Minimal Effect Observed Compared To To-317,Ricolinostat An D Citarinostat; Activity (N2a): inactive; Activity [5]: 60%
13 | 0.704 h | inactive | inactive | O=C1CCC(N2C(=O)c3cccc(NCCCCCCn4cc(CN(Cc5ccc(C(=O)NO)cc5)Cc5cccnc5)nn4)c3C2=O)C(=O)N1 (stereo unspecified) | –
14 | 0.738 h | inactive | inactive | O=C1CCC(N2C(=O)c3cccc(NCCCn4cc(CN(Cc5ccc(C(=O)NO)cc5)Cc5cccnc5)nn4)c3C2=O)C(=O)N1 (stereo unspecified) | –

Reference: ChEMBL document CHEMBL6103646 (J Med Chem, 2025)
